Experimental data taken from PMC4290623, “Homopharma: A new concept for exploring the molecular binding mechanisms and drug repurposing” (BMC Genomics, 2014).

Tests used:
Assay in all cases: In vitro enzymatic profiling, HotSpot assay platform
Format in all cases: biochemical
IGF1R = biological target: T1, IGF1R (Homo sapiens, UniProt P08069); settings: inhibitor 10 μM, ATP 10 μM; for IC50: duplicate, read-out: IC50 (bioactivity in the kinome picture)
T1 construct: purchased Reaction Biology Corporation
Method: (§1) In vitro enzymatic profiling of the 32 member kinase panel was performed at Reaction Biology Corporation (http://www.reactionbiology.com, Malvern, PA) using the "HotSpot" assay platform. Each kinase activity assay was performed in duplicate with inhibitor concentration of 10 μM and an ATP concentration of 10 μM.

FGFR1 = biological target: T2, FGFR1 (Homo sapiens, UniProt P11362); settings: inhibitor 10 μM, ATP 10 μM; for IC50: duplicate, read-out: IC50 (bioactivity in the kinome picture)
T2 construct: purchased Reaction Biology Corporation
Method: as §1

INSR = biological target: T3, INSR (Homo sapiens, UniProt P06213); settings: inhibitor 10 μM, ATP 10 μM, duplicate, read-out: IC50 (bioactivity in the kinome picture)
T3 construct: purchased Reaction Biology Corporation
Method: as §1

LCK = biological target: T4, LCK (Homo sapiens, UniProt P06239); settings: inhibitor 10 μM, ATP 10 μM
T4 construct: purchased Reaction Biology Corporation
Method: as §1

EGFR = biological target: T5, EGFR (Homo sapiens, UniProt P00533); settings: inhibitor 10 μM, ATP 10 μM
T5 construct: purchased Reaction Biology Corporation
Method: as §1

MAPK3 = biological target: T6, MAPK3 (Homo sapiens, UniProt P27361); settings: inhibitor 10 μM, ATP 10 μM
T6 construct: purchased Reaction Biology Corporation
Method: as §1

KIT = biological target: T7, KIT (Homo sapiens, UniProt P10721); settings: inhibitor 10 μM, ATP 10 μM
T7 construct: purchased Reaction Biology Corporation
Method: as §1

SRC = biological target: T8, SRC (Homo sapiens, UniProt P12931); settings: inhibitor 10 μM, ATP 10 μM
T8 construct: purchased Reaction Biology Corporation
Method: as §1

AKT2 = biological target: T9, AKT2 (Homo sapiens, UniProt P31751); settings: inhibitor 10 μM, ATP 10 μM
T9 construct: purchased Reaction Biology Corporation
Method: as §1

CHEK2 = biological target: T10, CHEK2 (Homo sapiens, UniProt O96017); settings: inhibitor 10 μM, ATP 10 μM
T10 construct: purchased Reaction Biology Corporation
Method: as §1

LIMK1 = biological target: T11, LIMK1 (Homo sapiens, UniProt P53667); settings: inhibitor 10 μM, ATP 10 μM
T11 construct: purchased Reaction Biology Corporation
Method: as §1

CSNK2A1 = biological target: T12, CSNK2A1 (Homo sapiens, UniProt P68400); settings: inhibitor 10 μM, ATP 10 μM, duplicate, read-out: IC50 (bioactivity in the kinome picture)
T12 construct: purchased Reaction Biology Corporation
Method: In vitro enzymatic profiling of the 32 member kinase panel was performed at Reaction Biology Corporation (http://www.reactionbiology.com, Malvern, PA) using the "HotSpot" assay platform. […]

CAMK2G = biological target: T13, CAMK2G (Homo sapiens, UniProt Q13555); settings: inhibitor 10 μM, ATP 10 μM, duplicate, read-out: IC50 (bioactivity in the kinome picture)
T13 construct: purchased Reaction Biology Corporation
Method: In vitro enzymatic profiling of the 32 member kinase panel was performed at Reaction Biology Corporation (http://www.reactionbiology.com, Malvern, PA) using the "HotSpot" assay platform. Each kinase activity assay was performed in duplicate with inhibitor concentration of 10 μM and an ATP concentration of 10 μM. […] Another compound JMY84 could also be used as drug candidates of colorectal cancer due to its effects on CHEK2, LIMK1, and FGFR1 (Figures 5D and 5E).

T2 sequence (P11362 22-822): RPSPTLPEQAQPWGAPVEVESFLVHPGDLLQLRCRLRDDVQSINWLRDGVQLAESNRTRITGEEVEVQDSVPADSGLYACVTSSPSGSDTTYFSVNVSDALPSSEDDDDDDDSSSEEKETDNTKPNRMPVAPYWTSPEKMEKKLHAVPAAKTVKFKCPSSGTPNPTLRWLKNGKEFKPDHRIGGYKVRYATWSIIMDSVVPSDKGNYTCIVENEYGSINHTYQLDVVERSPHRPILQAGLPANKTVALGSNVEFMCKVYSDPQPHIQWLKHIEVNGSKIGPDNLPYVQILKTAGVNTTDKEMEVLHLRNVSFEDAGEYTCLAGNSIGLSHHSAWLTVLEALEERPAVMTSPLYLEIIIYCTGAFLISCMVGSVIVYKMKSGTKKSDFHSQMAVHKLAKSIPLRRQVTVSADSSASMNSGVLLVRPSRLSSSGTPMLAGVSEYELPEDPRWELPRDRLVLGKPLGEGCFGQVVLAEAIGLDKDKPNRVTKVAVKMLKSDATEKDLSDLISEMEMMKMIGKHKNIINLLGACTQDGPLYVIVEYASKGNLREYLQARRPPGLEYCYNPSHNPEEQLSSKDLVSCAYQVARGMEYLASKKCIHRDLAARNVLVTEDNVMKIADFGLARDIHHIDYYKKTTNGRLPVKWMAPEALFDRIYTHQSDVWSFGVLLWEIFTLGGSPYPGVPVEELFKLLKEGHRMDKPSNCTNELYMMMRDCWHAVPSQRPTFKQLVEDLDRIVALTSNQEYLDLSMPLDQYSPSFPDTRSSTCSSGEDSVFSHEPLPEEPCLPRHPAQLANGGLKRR
T1 sequence (P08069 31-1367): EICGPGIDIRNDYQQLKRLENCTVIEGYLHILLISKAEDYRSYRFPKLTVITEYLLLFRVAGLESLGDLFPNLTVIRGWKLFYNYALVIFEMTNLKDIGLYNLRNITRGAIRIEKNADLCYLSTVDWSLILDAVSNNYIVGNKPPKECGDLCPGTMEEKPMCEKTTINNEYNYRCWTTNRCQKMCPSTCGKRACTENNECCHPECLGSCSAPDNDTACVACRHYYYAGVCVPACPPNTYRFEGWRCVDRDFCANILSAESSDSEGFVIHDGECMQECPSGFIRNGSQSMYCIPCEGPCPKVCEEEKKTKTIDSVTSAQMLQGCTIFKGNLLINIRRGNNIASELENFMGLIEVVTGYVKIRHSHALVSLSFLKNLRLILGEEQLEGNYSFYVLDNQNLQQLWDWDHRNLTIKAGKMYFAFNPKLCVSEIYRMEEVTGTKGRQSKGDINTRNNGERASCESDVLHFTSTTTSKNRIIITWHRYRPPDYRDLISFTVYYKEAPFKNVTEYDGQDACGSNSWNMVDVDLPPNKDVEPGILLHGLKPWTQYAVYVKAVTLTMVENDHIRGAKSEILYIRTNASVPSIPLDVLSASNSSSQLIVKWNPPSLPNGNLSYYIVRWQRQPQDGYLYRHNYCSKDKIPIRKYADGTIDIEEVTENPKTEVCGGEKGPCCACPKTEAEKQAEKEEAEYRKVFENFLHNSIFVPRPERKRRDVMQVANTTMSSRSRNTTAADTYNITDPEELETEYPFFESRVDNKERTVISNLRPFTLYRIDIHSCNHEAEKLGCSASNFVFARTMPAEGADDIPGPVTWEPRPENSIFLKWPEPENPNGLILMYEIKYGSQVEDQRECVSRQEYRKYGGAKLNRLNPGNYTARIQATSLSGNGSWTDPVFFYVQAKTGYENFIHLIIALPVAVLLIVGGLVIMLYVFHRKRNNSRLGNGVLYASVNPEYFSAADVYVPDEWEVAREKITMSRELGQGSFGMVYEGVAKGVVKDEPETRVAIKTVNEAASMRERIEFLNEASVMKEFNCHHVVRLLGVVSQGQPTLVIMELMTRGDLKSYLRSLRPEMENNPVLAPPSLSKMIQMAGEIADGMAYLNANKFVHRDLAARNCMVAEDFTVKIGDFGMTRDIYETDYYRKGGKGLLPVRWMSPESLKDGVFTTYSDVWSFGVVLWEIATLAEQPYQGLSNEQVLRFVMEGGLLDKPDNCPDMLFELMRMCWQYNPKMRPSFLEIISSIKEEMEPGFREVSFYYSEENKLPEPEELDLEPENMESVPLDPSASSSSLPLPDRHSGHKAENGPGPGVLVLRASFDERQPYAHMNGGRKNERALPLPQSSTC
T8 sequence (P12931 whole entry): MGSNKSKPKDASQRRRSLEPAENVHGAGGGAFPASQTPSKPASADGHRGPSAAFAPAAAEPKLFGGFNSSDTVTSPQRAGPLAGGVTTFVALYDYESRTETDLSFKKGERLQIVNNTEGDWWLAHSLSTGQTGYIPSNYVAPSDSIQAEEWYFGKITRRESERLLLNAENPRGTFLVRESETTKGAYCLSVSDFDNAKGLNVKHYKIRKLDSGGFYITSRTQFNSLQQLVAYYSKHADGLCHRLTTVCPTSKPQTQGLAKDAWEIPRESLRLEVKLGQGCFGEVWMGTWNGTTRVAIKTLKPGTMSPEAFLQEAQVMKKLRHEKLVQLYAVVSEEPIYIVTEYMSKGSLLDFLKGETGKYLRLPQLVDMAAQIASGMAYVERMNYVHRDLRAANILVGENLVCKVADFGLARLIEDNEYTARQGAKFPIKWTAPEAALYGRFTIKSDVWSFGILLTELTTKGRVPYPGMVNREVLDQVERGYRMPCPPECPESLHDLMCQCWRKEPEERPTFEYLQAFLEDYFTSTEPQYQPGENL
T3 sequence (P06213 28-1382): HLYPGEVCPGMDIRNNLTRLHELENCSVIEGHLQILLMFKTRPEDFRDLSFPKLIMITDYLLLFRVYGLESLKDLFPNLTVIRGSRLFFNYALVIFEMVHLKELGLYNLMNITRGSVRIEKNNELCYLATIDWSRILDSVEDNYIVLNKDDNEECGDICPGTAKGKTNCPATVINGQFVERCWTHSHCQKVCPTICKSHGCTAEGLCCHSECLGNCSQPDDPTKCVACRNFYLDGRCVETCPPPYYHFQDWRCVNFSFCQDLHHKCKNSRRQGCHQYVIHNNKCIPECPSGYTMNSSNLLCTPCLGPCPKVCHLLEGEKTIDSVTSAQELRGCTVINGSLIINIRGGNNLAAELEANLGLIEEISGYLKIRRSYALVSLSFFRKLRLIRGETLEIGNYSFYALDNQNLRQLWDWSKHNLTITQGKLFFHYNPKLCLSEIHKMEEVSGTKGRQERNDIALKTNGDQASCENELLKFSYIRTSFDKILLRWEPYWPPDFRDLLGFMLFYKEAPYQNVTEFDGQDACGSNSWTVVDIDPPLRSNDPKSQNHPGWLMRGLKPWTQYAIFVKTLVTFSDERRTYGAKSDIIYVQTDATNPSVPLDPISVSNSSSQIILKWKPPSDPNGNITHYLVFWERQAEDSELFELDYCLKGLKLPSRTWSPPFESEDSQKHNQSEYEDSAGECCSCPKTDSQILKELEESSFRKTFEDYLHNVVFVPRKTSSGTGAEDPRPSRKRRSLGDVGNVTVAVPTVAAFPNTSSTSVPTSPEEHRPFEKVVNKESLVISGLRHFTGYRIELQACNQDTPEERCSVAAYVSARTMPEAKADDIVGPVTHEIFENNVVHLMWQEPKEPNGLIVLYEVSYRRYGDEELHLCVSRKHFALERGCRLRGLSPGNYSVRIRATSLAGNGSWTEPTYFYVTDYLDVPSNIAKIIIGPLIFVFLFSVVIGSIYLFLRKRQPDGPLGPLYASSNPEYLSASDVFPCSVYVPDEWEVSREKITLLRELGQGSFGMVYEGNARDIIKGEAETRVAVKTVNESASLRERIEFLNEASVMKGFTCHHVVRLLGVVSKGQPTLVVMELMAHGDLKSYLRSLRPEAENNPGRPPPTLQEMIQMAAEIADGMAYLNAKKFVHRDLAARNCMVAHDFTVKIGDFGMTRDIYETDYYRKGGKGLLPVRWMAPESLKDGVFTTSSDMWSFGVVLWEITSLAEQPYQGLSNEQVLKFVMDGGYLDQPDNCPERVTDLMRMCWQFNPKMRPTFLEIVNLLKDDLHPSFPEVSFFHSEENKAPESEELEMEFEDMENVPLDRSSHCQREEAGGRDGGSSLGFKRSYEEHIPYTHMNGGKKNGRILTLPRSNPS
T7 sequence (P10721 26-976): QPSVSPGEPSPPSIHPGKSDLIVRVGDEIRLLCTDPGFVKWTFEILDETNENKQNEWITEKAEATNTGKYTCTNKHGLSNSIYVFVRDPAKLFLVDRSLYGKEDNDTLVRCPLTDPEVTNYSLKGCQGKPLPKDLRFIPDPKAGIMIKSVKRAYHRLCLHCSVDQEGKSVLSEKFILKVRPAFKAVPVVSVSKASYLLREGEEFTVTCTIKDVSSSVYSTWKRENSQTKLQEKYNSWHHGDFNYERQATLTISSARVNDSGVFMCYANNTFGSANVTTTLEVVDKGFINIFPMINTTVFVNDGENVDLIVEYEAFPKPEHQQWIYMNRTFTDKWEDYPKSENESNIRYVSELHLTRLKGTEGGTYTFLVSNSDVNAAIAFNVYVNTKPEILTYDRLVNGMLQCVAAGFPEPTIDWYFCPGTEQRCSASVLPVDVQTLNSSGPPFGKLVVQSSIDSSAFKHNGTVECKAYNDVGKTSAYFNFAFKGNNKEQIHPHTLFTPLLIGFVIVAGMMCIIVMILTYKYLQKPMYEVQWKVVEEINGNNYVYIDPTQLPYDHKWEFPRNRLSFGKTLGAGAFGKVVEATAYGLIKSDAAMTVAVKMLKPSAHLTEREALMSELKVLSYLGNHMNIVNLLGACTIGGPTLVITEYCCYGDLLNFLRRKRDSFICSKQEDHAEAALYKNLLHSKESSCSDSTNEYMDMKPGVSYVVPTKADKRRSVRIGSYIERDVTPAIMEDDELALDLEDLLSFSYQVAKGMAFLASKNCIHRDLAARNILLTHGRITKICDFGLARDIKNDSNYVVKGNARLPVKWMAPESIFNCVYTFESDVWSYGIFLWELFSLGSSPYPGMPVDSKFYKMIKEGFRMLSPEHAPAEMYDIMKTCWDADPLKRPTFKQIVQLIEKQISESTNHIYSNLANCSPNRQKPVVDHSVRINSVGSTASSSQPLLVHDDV

## O=c1cc(-c2ccccc2)oc2cc(O)c(O)c(O)c12 [JMY51]
IGF1R
  IC50: ~1000 nM
FGFR1
  IC50: ~3000 nM
INSR
  IC50: ~2000 nM

## O=C(Oc1cc(O)c2c(c1)OC(c1ccc(O)c(O)c1)C(O)C2)c1cc(O)c(O)c(O)c1 (stereo not drawn) [JMY65]
IGF1R
  inhibitory effect (in words): inhibitory effects
  IC50: ~100 nM
LCK
  inhibitory activity (in words): inhibitory activities
EGFR
  inhibitory effect (in words): inhibitory effects
MAPK3
  inhibitory effect (in words): inhibitory effects
KIT
  inhibitory activity (in words): inhibitory activities
SRC
  inhibitory activity (in words): inhibitory activities
SRC; duplicate, read-out: IC50 (bioactivity in the kinome picture)
  IC50: ~500 nM
AKT2
  inhibitory effect (in words): inhibitory effects

## O=c1c(O)c(-c2ccc(OC3OC(CO)C(O)[C@@H](O)C3O)c(O)c2)oc2cc(O)cc(O)c12 (stereo partly drawn) [JMY84]
FGFR1
  effect on kinase (in words): effects
CHEK2
  effect on kinase (in words): effects
LIMK1
  effect on kinase (in words): effects
CSNK2A1
  IC50: ~1000 nM

## O=c1c(O)c(-c2ccc(O)c(O)c2)oc2cc(O)cc(O)c12 [Quercetin, quercetin, reference compound]
FGFR1
  IC50: ~1000 nM
CAMK2G
  IC50: ~1000 nM
